pKi: −log10 of the molar value.
Molecular target: Neprilysin (Homo sapiens, UniProt P08473)
Experiment: Compound was evaluated for inhibition of enkephalin degrading enzyme, neutral endopeptidase (NEP)

Sequence of Neprilysin (P08473 whole entry): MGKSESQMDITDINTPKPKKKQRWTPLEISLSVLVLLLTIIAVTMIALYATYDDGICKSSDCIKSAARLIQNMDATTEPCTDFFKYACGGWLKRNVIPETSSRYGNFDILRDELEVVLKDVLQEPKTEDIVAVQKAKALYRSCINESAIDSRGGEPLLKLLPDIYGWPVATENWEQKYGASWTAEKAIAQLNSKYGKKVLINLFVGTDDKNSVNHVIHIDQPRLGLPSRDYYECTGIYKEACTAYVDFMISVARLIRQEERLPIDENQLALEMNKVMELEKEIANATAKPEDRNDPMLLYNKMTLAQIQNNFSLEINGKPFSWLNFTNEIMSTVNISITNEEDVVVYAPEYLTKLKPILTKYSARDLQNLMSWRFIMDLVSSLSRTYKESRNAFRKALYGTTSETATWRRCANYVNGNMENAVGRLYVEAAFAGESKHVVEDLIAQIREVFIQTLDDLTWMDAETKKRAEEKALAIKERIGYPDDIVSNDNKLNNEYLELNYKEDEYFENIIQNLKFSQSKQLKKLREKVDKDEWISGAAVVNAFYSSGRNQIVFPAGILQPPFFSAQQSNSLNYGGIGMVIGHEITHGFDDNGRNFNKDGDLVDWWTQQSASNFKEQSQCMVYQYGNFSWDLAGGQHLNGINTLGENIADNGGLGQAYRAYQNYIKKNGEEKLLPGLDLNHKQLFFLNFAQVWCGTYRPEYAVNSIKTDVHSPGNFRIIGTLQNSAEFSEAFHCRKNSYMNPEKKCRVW

pKi: 8.70
SMILES: CSCC[C@H](N)CSSC[C@@H](Cc1ccccc1)C(=O)NC(Cc1ccccc1)C(=O)OCc1ccccc1 (stereo partly specified)

— ChEMBL document CHEMBL1134632, “Long lasting antinociceptive properties of enkephalin degrading enzyme (NEP and APN) inhibitor prodrugs” (J Med Chem, 2001)
